In patent publication US8519163B2, “Anti-tumor activity of AECHL-1, novel triterpenoid isolated from Ailanthus excelsa in vitro and in vivo” (National Centre for Cell Science, priority 2008, dated 2013):

Key:
[1] = system: B16F10 mouse melanoma cells; assay: Cell viability (MTT) and proliferation ([3H]thymidine) assay; type: cell-based; conditions: 12, 24 and 48 h, concentration and time dependent
Procedure: (§1) The cytotoxic effect of AECHL-1 on the HEK 293, B16F10, PC3, MCF 7 and MDA-MB-231 cells was measured by MTT assay as described in previous studies. The cells were dispensed in 96-well, flat bottom microtiter plates (Becton Dickinson Labware) at a density of 5×10^3 cells each well. […] MTT [3-(4,5-dimethylthiazol-2yl)-2,5-diphenyl tetrazolium bromide] solution (5 mg/ml in PBS) was added at the end of experiment to each well to a final concentration of 0.5 mg/ml, and the cultures were incubated for further 4 h. The resulting formazan crystals were dissolved in 100 μl dimethylsulfoxide (DMSO) and absorbance was measured in a microplate reader at 570 nm (Molecular Devices, Spectra MAX 250). The cytotoxic effect was expressed as a relative percentage of inhibition calculated as follows: Relative inhibition(%)=[(A570 control−A570 AECHL-1)A570 control]×100 Cell Proliferation Assay
(§2) Aliquots of complete medium containing 5×10^3 cells (B16F10, PC3, MDA-MB-231 and MCF-7 cells) were distributed into 96-well tissue culture plates. […] After 6 h incubation, 1 μCi [^3H]thymidine was added to each well. Cells were harvested after 24 and 48 hrs of treatment on a glass filter paper with a 96-well auto-harvester and the amount of incorporated [^3H]thymidine was determined with a β-counter (Canberra packard).

[2] = system: MCF-7 human breast cancer; assay: as above; type: cell-based
Procedure: as §1, §2

[3] = system: MDA-MB-231 human breast carcinoma; assay: as above; type: cell-based; conditions: 12, 24 and 48 h, concentration and time dependent
Procedure: as §1, §2

[4] = system: PC3 human prostate cancer cells; assay: as above; type: cell-based; conditions: 12, 24 and 48 h, concentration and time dependent
Procedure: as §1, §2

[5] = system: cellular microtubule network; assay: Immunocytochemistry, microtubule network in MCF-7 cells; type: cell-based, human; conditions: paclitaxel 1-20 μM, AECHL-1 2-40 μM, 24 h, confocal microscopy
Procedure: Immunocytochemistry was performed as described previously. […] Cells were incubated with primary anti-p53 antibodies (1:100; Abcam) and anti-α-tubulin antibodies (1:10000; Sigma chemical Co.) for 1 hour at room temperature. After washing with PBS, cells were incubated with CY2-conjugated secondary antibodies (1:200; Chemicon, Germany) and Alexa-conjugated secondary antibodies (1:10000; Sigma, St. Louis, Mo.) for 45 minutes and nuclear staining was done with DAPI. Images were captured under confocal microscope.
The tumor suppressor p53 plays a critical role in preventing human cancer formation. It translocates into the nucleus and works as a transcription factor by upregulating cell cycle regulatory proteins and induces cell cycle arrest and/or programmed cell death (apoptosis) (11). […] After 24 h of incubation, the p53 translocation in the nucleus (green fluorescence) and microtubule network (red fluorescence) was visualized by confocal microscopy.

B16F10 melanoma cells = assay: In vivo allograft tumor model; parameters: species or system C57B1/6 mice; conditions: for tumor weight to body weight ratio: after 12 days treatment, vs control (p<0.01); for tumor size reduced by / tumor volume on day 24: B16F10 allograft; for tumor size reduced by: day 18; for histological examination of tumor tissue: C57 mice
Procedure: The data reported for tumor volumes are expressed as mean±SEM. Statistical differences were determined by ANOVA and post test applied was Tukey-Kramer multiple comparison Test. For Tumor to body weight ratio post test applied was Dunnett multiple comparisons test.

CDK4 = assay: Western blot of tumor homogenates of C57B1/6 mice; type: in vivo, mouse; conditions: tumor of C57 mice
Procedure: (§3) Prior to immunoblot analysis, tumor segments stored at −80° C. were thawed, washed, minced and homogenized in lysis buffer (120 mM NaCl, 1.0% Triton X 100, 20 mM Tris-HCl, pH 7.5, 10% glycerol, 2 mM EDTA, Protease inhibitor cocktail, Roche) using a Polytron homogenization device. Lysates were incubated at 4° C. for 30 min and centrifuged at 14000 r.p.m. in an Eppendorf micro centrifuge for 15 min. Proteins were isolated in solublised form. Protein concentrations were measured by Bradford assay (Bio-Rad protein assay kit) and stored at −80° C. For immunobloting, 60 μg of total protein from the tumor lysates were used Proteins were resolved in a 10% SDS-polyacrylamide gel, transferred to the immobilon-P […] membrane and blocked with 5% (wt/v) non fat dry milk powder (Sigma) in TBST buffer (10 mM Tris pH 7.6, 150 mM NaCl and 0.1% Tween-20) for three hours at room temperature and then incubated with primary antibodies p53, pp53, p21, Cyclin D1, CDK4 and c-Myc in TBST for 3 h and with actin for 1 hour at room temperature. The membrane was incubated further with the secondary antibody HRP-conjugated (BD Bioscience) at 1:10000 dilution for 1 h at room temperature. Following each antibody incubation, the membrane was washed thoroughly with TBST buffer 3 times. The protein bands were visualized using the enhanced chemiluminescence substrate reaction (Pierce) according to the manufacturer's instructions using X-OMAT AR5 film (Kodak)

Cyclin D1 = assay: Western blot of tumor homogenates of C57B1/6 mice; type: in vivo, mouse; conditions: tumor of C57 mice
Procedure: as §3

c-Myc = assay: Western blot of tumor homogenates of C57B1/6 mice; type: in vivo, mouse; conditions: tumor of C57 mice
Procedure: as §3

p21 = assay: Western blot of tumor homogenates of C57B1/6 mice; type: in vivo, mouse; conditions: tumor of C57 mice
Procedure: as §3

p53 = assay: Western blot of tumor homogenates of C57B1/6 mice; type: in vivo, mouse; conditions: tumor of C57 mice, compared with control
Procedure: as §3

pp53 = assay: Western blot of tumor homogenates of C57B1/6 mice; type: in vivo, mouse; conditions: tumor of C57 mice
Procedure: as §3

C=C1C(OCC)C2(O)OCC34C(=C(C)c5c(C)cc(O)c(OCC)c5C23)OC(=O)C(OC(=O)C(C)(O)CC)C14 (centres unmarked) [AECHL-1]
percent viability and proliferation of the tumor cells [1]: significantly inhibited
percent viability and proliferation of the tumor cells ([2]; MCF-7, 12, 24 and 48 h, concentration and time dependent): significantly inhibited
inhibitory effect compared with reference drugs ([2]; MCF-7 cells, 10 μM, 48 h): stronger than that of Paclitaxel, or Cisplatin
percent viability and proliferation of the tumor cells [3]: significantly inhibited
percent viability and proliferation of the tumor cells [4]: significantly inhibited
effect on microtubule network [5]: thickening and increased density of microtubules
tumor weight to body weight ratio (B16F10 melanoma cells; 50 μg): significant reduction
tumor weight to body weight ratio (B16F10 melanoma cells; 100 μg): significant reduction
tumor size reduced by (B16F10 melanoma cells; 50 μg intra-tumor for 12 days): 44.303±5.20%
tumor volume on day 24 (B16F10 melanoma cells; 50 μg): increased
tumor size reduced by (B16F10 melanoma cells; 100 μg intra-tumor for 12 days): 51.014±1.27%
tumor volume on day 24 (B16F10 melanoma cells; 100 μg): increased
histological examination of tumor tissue (B16F10 melanoma cells; 50 μg): Tumor cell density was found to be decreased with occurrence of picnotic/necrotic cells in the center of the tumor
histological examination of tumor tissue (B16F10 melanoma cells; 100 μg): increase in necrotic nuclei through out the tumor area, with disappearance of neovasulization and hemorrhagic areas
expression of CDK4 (CDK4): reduced the expression
expression of cyclin D1 (Cyclin D1): reduced the expression
expression of c-Myc (c-Myc): downragulation
expression of p21 (p21; 50 μg): decrease
expression of p21 (p21; 100 μg): increased
p53 protein expression (p53; 50 μg): increasing expression
p53 protein expression (p53; 100 μg): increasing expression
phosphorylation of p53 (pp53) (pp53; 50 μg): increasing
phosphorylation of p53 (pp53) (pp53; 100 μg): decreased
